Measured values as given in PubChem BioAssay (NCI).
“And” between values parts separate entries of the source, which are not always exact repeats. Identical values can stand only once.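 Grown in 96-well plates, cells were treated for 48 hours with each compound at five concentrations. Insufficient inhibition: endpoint recorded as highest concentration tested. GI50: concentration for 50% inhibition of growth. At the TGI there is no net growth.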

Key:
Test in all cases: NCI tumour cell line growth inhibition, 48 h
MALME-3M melanoma = tested on: MALME-3M melanoma
MOLT-4 leukemia = tested on: MOLT-4 leukemia
SF-268 CNS = tested on: SF-268 CNS
U251 CNS = tested on: U251 CNS
MDA-MB-435 = tested on: MDA-MB-435
RPMI-8226 leukemia = tested on: RPMI-8226 leukemia
SR leukemia = tested on: SR leukemia
TK-10 renal = tested on: TK-10 renal
UACC-257 melanoma = tested on: UACC-257 melanoma
HT29 colon = tested on: HT29 colon

SMILES | GI50 (MALME-3M melanoma) | TGI (MALME-3M melanoma) | GI50 (MOLT-4 leukemia) | TGI (MOLT-4 leukemia) | GI50 (SF-268 CNS) | TGI (SF-268 CNS) | GI50 (U251 CNS) | TGI (U251 CNS) | GI50 (MDA-MB-435) | TGI (MDA-MB-435) | GI50 (RPMI-8226 leukemia) | TGI (RPMI-8226 leukemia) | GI50 (SR leukemia) | TGI (SR leukemia) | GI50 (TK-10 renal) | TGI (TK-10 renal) | GI50 (UACC-257 melanoma) | TGI (UACC-257 melanoma) | GI50 (HT29 colon) | TGI (HT29 colon)
C=CC(=O)Nc1cc(Nc2nccc(-c3cn(C)c4ccccc34)n2)c(OC)cc1N(C)CCN(C)C | 2.16 µM and 1.71 µM | 3.97 µM and 3.28 µM | 1.77 µM and 1.49 µM | 5.08 µM and 3.66 µM | 1.95 µM and 1.87 µM | 7.02 µM and > 10 µM | 1.63 µM and 1.71 µM | 3.26 µM and 3.35 µM | 1.62 µM and 1.64 µM | 3.03 µM and 3.14 µM | 1.95 µM and 1.45 µM | 6.65 µM and 4.08 µM | 1.29 µM and 1.62 µM | 4.94 µM and 3.77 µM | 0.0615 µM and 0.0824 µM | 15.5 µM and 2.02 µM | 1.71 µM and 1.8 µM | 3.27 µM and 3.37 µM | 1.84 µM and 1.51 µM | 4.07 µM and 3.24 µM
COC(=O)c1cc2oc(/C=C3/SC(=S)N(NC(C)=O)C3=O)cc2n1C | 10.8 µM | 52 µM | 11.3 µM | 62.1 µM | 28.4 µM | > 100 µM | 16 µM | 45 µM | 17.6 µM | > 100 µM | 24 µM | > 100 µM | 3.32 µM | > 100 µM | 26 µM | 97.4 µM | 30.1 µM | > 100 µM | 27.2 µM | > 100 µM
COc1c2ccccc2c(OC)c2[nH]c(=O)ccc12 | 0.578 µM | 1.78 µM | > 21.5 µM | > 100 µM | 9.51 µM | > 100 µM | 4 µM | > 69 µM | 1.98 µM | 4.07 µM | 12.6 µM | > 100 µM | 6.61 µM | > 100 µM | 51.2 µM | > 100 µM | 2.5 µM | 6.39 µM | 4.66 µM | > 57 µM
Nc1nc2[nH]cc(CCc3ccc(C(=O)N[C@@H](CCC(=O)O)C(=O)O)cc3)c2c(=O)[nH]1 |  | > 100 µM | 0.53 µM | > 100 µM | 0.219 µM | > 100 µM | 14.6 µM | > 100 µM |  | > 100 µM | > 65.9 µM | > 100 µM |  | > 100 µM |  | > 100 µM |  | > 100 µM | 35 µM | > 100 µM
COC(=O)/C=C/c1cc(OC(C)=O)c2c(c1)[C@@H](C(=O)OC)[C@H](c1ccc(OC(C)=O)c(OC(C)=O)c1)O2 | 0.0512 µM | 48.7 µM | 0.09 µM | > 55 µM | 0.301 µM | 57.5 µM | 0.114 µM | 41 µM | 0.0166 µM | 0.0466 µM | 0.049 µM |  | 0.0281 µM | > 49.6 µM | 2.58 µM | > 91.1 µM | 1.45 µM | 56.2 µM | 1.68 µM | > 58.7 µM
NC(=S)N/N=C1\c2cc(Cl)ccc2-c2c1cc(Cl)cc2[N+](=O)[O-] | 9.26 µM | 87.4 µM | 3.21 µM | 23.6 µM | 9.79 µM | > 100 µM | 2.99 µM | 14.9 µM | 7.28 µM | > 100 µM | 3.44 µM | 20.5 µM | 4.87 µM | > 100 µM | 20.5 µM | > 100 µM | 6.56 µM | > 100 µM | 10 µM | 61.2 µM
CN1CCN(C(=O)COc2ccc(C34CC5CC(CC(C5)C3)C4)cc2)CC1 | 7.64 µM | 22.3 µM | 13.2 µM | 94.9 µM | 16.4 µM | 39.3 µM | 10.8 µM | 25 µM | 14.6 µM | 28.8 µM | 2.09 µM | 5.73 µM | 4.62 µM | 97.4 µM | 16.7 µM | 33.2 µM | 12.8 µM | 31.9 µM | 4.66 µM | 19.1 µM
COc1ccccc1NC(=O)c1cc2cc(Br)ccc2cc1O | 1.39 µM | 4.87 µM | 2.7 µM | 17.3 µM | 3.21 µM | 16.2 µM | 2.65 µM | 9.58 µM | 2.35 µM | 8.58 µM | 1.45 µM | 4.66 µM | 0.809 µM | 9.14 µM | 4.31 µM | 15.3 µM | 1.97 µM | 5.3 µM | 7.73 µM | 21.5 µM
C=C1C(=O)O[C@H]2[C@H]1CC/C(CNC(=O)c1cc3ccccc3[nH]1)=C\CC[C@@]1(C)O[C@@H]21 | 1.78 µM | 3.6 µM | 1.6 µM | 4.55 µM | 1.6 µM | 3.67 µM | 1.68 µM | 3.26 µM | 1.58 µM | 4.63 µM | 1.02 µM | 3.88 µM | 0.319 µM | 3.4 µM | 1.48 µM | 3.23 µM |  |  | 1.11 µM | 3.09 µM
NC(N)=NS(=O)(=O)c1ccc(N=Nc2c(O)c(C(=O)O)cc3ccccc23)cc1 |  | > 100 µM |  | > 100 µM |  | > 100 µM |  | > 100 µM |  | > 100 µM |  | > 100 µM |  | > 100 µM |  | > 100 µM |  | > 100 µM |  | > 100 µM
CC1(C)[C@@H](NOCCCN)CC[C@]2(C)[C@H]3C(=O)C=C4[C@@H]5C[C@](C)(C(=O)O)CC[C@]5(C)CC[C@@]4(C)[C@]3(C)CC[C@@H]12 | 4.56 µM | 16.9 µM | 4.63 µM | 43 µM | 8.92 µM | 21.6 µM | 4.49 µM | 25.4 µM | 6.08 µM | 23.6 µM | 2.8 µM | 19.7 µM | 2.27 µM | 6.89 µM | 16.7 µM | 36 µM | 6.81 µM | 32.3 µM | 3.45 µM | 16.1 µM
C=C1C[C@H](O)[C@H](Br)C(C)(C)[C@@]12CCC(C)=C(Cl)C2 | 0.31 µM | 2.3 µM | 0.229 µM | 0.795 µM | 0.396 µM | 6.25 µM | 0.367 µM | 12.2 µM | 0.327 µM | 1.72 µM | 0.229 µM | 1.25 µM | 0.237 µM | 11.1 µM | 0.373 µM | 2.89 µM |  |  | 0.26 µM | 1.45 µM
Cc1cc(Nc2ccc(C)c(Cl)c2)n2nc(C(F)(F)F)nc2n1 | 30.4 µM | 97.9 µM | 19.9 µM | 94.3 µM | 28.3 µM | > 100 µM | 23.5 µM | > 100 µM | 19 µM | 55.6 µM | 14 µM | 39 µM | 18.4 µM | 57 µM | 31.2 µM | 84.8 µM |  |  | 26.6 µM | > 100 µM
